These results are taken from US4861763A, “17 α-(substituted-methyl)-17β-hydroxy/esterified hydroxy steroids and their progestational use” (Research Triangle Institute, priority 1988, dated 1989).

Where two headings read alike, the source gives them in different places.

One experiment has as its target T1, estrogen receptor (Rattus norvegicus, UniProt P06211).
T1 construct: estrogen receptor from immature rat uterus; from tissue; host or cells: uterus cytosol of immature rats
T1 sequence (P06211 1-600): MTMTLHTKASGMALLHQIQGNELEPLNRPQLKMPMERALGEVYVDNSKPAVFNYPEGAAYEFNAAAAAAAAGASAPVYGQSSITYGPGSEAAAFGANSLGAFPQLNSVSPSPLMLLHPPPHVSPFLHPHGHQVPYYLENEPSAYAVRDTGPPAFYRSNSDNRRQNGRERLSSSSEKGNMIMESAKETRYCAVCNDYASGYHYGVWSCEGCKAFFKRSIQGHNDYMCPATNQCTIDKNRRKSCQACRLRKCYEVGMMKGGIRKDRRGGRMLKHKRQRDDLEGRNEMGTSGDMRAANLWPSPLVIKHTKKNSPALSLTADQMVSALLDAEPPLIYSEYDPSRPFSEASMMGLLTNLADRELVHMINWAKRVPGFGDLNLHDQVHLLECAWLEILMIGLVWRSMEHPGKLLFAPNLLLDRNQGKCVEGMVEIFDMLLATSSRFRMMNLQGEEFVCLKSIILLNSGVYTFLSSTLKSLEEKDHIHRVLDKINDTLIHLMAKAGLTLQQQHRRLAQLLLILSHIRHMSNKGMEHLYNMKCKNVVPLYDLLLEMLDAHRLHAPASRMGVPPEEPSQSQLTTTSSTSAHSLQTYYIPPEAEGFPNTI
The experiment is described as follows: relative binding affinity (RBA) for estrogen receptor from immature rat uterus. The protocol:
(§1) concentrations) with cytosol containing the receptor and a tritiumlabeled
(§2) required to displace 50% of bound radioligand is determined graphically

The target in the next experiment is T2, progesterone receptor (Oryctolagus cuniculus, UniProt P06186).
T2 construct: cytosol obtained from estrogen-primedimmature rabbit uterus; from tissue; host or cells: uterus cytosol of estrogen-primed immature rabbits
T2 sequence (P06186 1-930): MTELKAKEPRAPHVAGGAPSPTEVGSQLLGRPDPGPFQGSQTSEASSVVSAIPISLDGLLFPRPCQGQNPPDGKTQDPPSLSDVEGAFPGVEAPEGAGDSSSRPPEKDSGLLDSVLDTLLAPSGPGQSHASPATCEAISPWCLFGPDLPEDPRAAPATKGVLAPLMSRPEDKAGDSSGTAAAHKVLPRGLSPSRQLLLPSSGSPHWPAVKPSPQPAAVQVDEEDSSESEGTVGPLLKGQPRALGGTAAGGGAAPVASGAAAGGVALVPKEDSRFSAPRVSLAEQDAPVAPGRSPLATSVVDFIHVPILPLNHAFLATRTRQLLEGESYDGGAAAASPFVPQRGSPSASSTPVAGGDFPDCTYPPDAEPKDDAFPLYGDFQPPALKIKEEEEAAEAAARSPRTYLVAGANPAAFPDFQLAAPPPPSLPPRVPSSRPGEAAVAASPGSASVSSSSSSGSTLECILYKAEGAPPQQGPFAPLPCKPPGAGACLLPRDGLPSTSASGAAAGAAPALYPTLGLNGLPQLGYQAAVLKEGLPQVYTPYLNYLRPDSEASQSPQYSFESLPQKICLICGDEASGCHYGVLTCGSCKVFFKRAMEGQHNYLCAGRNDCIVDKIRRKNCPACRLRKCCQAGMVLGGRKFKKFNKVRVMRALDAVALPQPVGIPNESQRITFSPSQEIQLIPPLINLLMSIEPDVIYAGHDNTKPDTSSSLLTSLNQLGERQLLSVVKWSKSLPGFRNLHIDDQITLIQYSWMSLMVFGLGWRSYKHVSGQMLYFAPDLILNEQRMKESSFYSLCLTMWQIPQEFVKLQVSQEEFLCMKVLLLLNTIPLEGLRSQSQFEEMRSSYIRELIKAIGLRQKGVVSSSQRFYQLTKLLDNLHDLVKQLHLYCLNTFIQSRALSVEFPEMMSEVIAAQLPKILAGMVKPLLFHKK
The experiment in a line: relative binding affinity (RBA) for progesterone receptor in cytosol of estrogen-primed immature rabbit uterus. The following applies: relative to progesterone = 100; average of 1-3 assays. The protocol: as §1, §2

The next experiment addresses T3, glucocorticoid receptor (Rattus norvegicus, UniProt P06536).
T3 construct: glucocorticoid receptor from thymus of adrenalectomized rats; from tissue; host or cells: thymus cytosol of adrenalectomized rats
T3 sequence (P06536 1-795): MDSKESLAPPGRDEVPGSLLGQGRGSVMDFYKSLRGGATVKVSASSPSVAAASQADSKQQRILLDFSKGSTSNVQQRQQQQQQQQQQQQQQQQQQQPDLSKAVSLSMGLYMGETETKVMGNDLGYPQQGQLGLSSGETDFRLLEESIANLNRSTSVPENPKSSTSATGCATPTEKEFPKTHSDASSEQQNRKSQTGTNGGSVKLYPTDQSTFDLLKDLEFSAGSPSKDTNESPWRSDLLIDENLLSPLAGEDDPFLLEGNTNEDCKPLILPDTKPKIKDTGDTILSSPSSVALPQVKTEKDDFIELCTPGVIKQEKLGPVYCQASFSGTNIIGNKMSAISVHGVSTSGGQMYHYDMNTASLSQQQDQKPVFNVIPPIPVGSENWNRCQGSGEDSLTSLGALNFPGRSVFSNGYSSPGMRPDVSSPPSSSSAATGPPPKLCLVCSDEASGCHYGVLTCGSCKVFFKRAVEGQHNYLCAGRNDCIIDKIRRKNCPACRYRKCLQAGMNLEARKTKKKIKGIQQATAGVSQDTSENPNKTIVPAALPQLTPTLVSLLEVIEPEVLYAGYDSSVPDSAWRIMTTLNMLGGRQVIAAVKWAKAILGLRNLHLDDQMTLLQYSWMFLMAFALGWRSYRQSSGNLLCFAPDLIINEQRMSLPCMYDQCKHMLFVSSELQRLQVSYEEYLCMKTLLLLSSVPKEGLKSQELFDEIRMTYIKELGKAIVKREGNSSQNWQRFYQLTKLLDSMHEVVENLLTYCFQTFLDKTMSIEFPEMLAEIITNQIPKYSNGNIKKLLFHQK
The experiment is described as follows: relative binding affinity (RBA) for glucocorticoid receptor from thymus of adrenalectomized rats. The following applies: for RBA for Glucocorticoid receptor: relative to dexamethasone = 100, average of 1-3 assays; for binding to the glucocorticoid receptor, times the RBA of dexamethasone: compared with dexamethasone. The protocol:
as §1, §2

For experiment [1], the system named is endometrial response due to subcutaneous administration of progesterone. The experiment is described as follows: in vivo antiprogestational activity, intrauterine (McGinty test). The arrangement: species or system rabbit. From the text: (§3) The antiprogestational activity of compound XVa was studied after both intrauterine and oral administration. […] The methodology used for the intrauterine test has been described by D. A. McGinty et al [Endocrinology, 24, 829 (1939)]. For oral administration of test compounds the method used was analogous to that of Clauberg [Clauberg, Zentr. Gynakol, 54, 2757 (1930)] as modified by McPhail [J. Physiol. (London) 83, 145 (1935)].
(§4) ^a Immature female rabbits are primed with estrogen and dosed with
(§5) stained and scored for endometrial proliferation according to McPhail.

For experiment [2] the test system is unchanged. The experiment in a line: in vivo antiprogestational activity, oral (Clauberg test modified by McPhail). The arrangement: species or system rabbit.
Excerpt: as §3, §4, §5

The conditions of experiment [3]: vs levonorgestrel; cited from earlier work.
The conditions of experiment [4]: in vivo; cited from earlier work.
Where [5] appears, read: relative to estradiol = 100, average of 1-3 assays.

For `CC(=O)[C@H]1CC[C@H]2[C@@H]3CCC4=CC(=O)CC[C@]4(C)[C@H]3CC[C@]12C` [Progesterone, reference compound], at estrogen receptor (setting [5]), the “RBA for Estrogen receptor” value turned out to be 0.

Regarding “11β-(4-Dimethylaminophenyl)-17β-hydroxy-17α-azidomethyl-4,9-estradien-3-one [XVb]”, the “RBA for Progestin receptor” value on progesterone receptor is reported as 71. Further, at estrogen receptor (setting [5]), the “RBA for Estrogen receptor” value worked out at 0. Also, at glucocorticoid receptor, the “RBA for Glucocorticoid receptor” value is 143.

In the case of “11β-(4-Dimethylaminophenyl)-17β-hydroxy-17α-methoxymethyl-4,9-estradien-3-one [XVc]”, on progesterone receptor, the “RBA for Progestin receptor” value is 54. Moreover, at estrogen receptor (setting [5]), the “RBA for Estrogen receptor” value amounted to 0. For the same compound, at glucocorticoid receptor, the “binding to the glucocorticoid receptor, times the RBA of dexamethasone” value is “ca. 3 times” and the “RBA for Glucocorticoid receptor” value was 413.

Take `C[C@@H]1C[C@H]2[C@@H]3CCC4=CC(=O)C=C[C@]4(C)[C@@]3(F)[C@@H](O)C[C@]2(C)[C@@]1(O)C(=O)CO` [Dexamethasone, reference compound]: the “RBA for Progestin receptor” value at progesterone receptor amounted to 0.1.

In the case of `CN(C)c1ccc([C@H]2C[C@@]3(C)[C@@H](CC[C@@]3(O)CC#N)[C@@H]3CCC4=CC(=O)CCC4=C32)cc1` [XVa, 17α-Cyanomethyl-11β-(4-dimethylaminophenyl)-17β-hydroxy-4,9-estradien-3-one], the “RBA for Progestin receptor” value on progesterone receptor was 33. For the same compound, on estrogen receptor, the “RBA for Estrogen receptor” value came out at 0. Besides, the “RBA for Glucocorticoid receptor” value at glucocorticoid receptor is listed as 74. The “% Inhibition of Progestational Response” value is 7.3 ± 4.5% in experiment [1] (total dose per rabbit 1.0 μg); 26.7 ± 4.5% in experiment [1] (total dose per rabbit 5.0 μg); 80.5 ± 9.8% in experiment [1] (total dose per rabbit 10.0 μg); 96.3 ± 3.7% in experiment [1] (total dose per rabbit 40.0 μg); 7.8 ± 6.0% in experiment [2] (total dose per rabbit 5 mg); 56.2 ± 7.1% in experiment [2] (total dose per rabbit 10 mg). Also, the “% Inhibition of Progestational Response” value in experiment [2] (total dose per rabbit 20 mg) is given as 79.1 ± 7.4%.

For `C[C@]12CCC3=C4CCC(=O)C=C4CC[C@H]3[C@@H]1CC[C@@]2(O)CC#N` [STS 557], the “oral potency as a gestagen relative to levonorgestrel” value in experiment [3] is recorded as “ten times”. In addition, in experiment [4], the “progestational activity” value was “strong progestational activity”.

For the compound “11β-(4-Dimethylaminophenyl)-17β-hydroxy-17α-benzyl-4,9-estradien-3-one [XVd]”, the “RBA for Progestin receptor” value on progesterone receptor is 64. Further, the “RBA for Estrogen receptor” value at estrogen receptor (setting [5]) is 0. Also, at glucocorticoid receptor, the “binding to the glucocorticoid receptor, times the RBA of dexamethasone” value was “ca. 3 times” and the “RBA for Glucocorticoid receptor” value was found to be 274.

As for “11β-(4-Dimethylaminophenyl)-17β-hydroxy-17α-prop-2-yn-1-yl- 4,9-estradien-3-one [XVe]”, the “RBA for Progestin receptor” value on progesterone receptor stood at 23. Besides, the “RBA for Estrogen receptor” value on estrogen receptor (setting [5]) was determined as 0. The “RBA for Glucocorticoid receptor” value at glucocorticoid receptor worked out at 100.
